Measured values: patent US10221197B2, “Phosphatidylinositol 3-kinase inhibitors” (Gilead Sciences, Inc., priority 2014, dated 2019)
Where a name gives a salt, the structure may show the parent alone.

Experiments:
Type in all cases: biochemical
PI3Kγ = PI3Kγ (Homo sapiens (Human), UniProt P48736); assay: TR-FRET enzymatic assay of PI3K isoforms (PI3Kγ); conditions: TR-FRET, 2×Km ATP, 2 μM PIP2, PI3Kγ at 2 nM, incubated for 30 minutes at 25° C.; read-out: γ IC50
Procedure: (§1) The compounds of formula (I) were characterized for their enzymatic activity against the PI3K isoforms. Certain compounds of the present application, including certain compounds of formula (II) and (III) were also characterized for their enzymatic activity against PI3K isoforms. The activities were measured using a time-resolved fluorescence resonance energy transfer (TR-FRET) assay.

PI3Kβ = PI3Kβ (Homo sapiens (Human), UniProt P42338); assay: TR-FRET enzymatic assay of PI3K isoforms (PI3Kβ); conditions: TR-FRET, 2×Km ATP, 2 μM PIP2, incubated for 30 minutes at 25° C.; read-out: β IC50
Procedure: as §1

PI3Kδ = PI3Kδ (Homo sapiens (Human), UniProt O00329); assay: TR-FRET enzymatic assay of PI3K isoforms (PI3Kδ); conditions: 2×Km ATP, 2 μM PIP2, incubated for 30 minutes at 25° C., read-out: δ IC50
Procedure: as §1

PI3Kδ, sequence (O00329 whole entry, canonical isoform): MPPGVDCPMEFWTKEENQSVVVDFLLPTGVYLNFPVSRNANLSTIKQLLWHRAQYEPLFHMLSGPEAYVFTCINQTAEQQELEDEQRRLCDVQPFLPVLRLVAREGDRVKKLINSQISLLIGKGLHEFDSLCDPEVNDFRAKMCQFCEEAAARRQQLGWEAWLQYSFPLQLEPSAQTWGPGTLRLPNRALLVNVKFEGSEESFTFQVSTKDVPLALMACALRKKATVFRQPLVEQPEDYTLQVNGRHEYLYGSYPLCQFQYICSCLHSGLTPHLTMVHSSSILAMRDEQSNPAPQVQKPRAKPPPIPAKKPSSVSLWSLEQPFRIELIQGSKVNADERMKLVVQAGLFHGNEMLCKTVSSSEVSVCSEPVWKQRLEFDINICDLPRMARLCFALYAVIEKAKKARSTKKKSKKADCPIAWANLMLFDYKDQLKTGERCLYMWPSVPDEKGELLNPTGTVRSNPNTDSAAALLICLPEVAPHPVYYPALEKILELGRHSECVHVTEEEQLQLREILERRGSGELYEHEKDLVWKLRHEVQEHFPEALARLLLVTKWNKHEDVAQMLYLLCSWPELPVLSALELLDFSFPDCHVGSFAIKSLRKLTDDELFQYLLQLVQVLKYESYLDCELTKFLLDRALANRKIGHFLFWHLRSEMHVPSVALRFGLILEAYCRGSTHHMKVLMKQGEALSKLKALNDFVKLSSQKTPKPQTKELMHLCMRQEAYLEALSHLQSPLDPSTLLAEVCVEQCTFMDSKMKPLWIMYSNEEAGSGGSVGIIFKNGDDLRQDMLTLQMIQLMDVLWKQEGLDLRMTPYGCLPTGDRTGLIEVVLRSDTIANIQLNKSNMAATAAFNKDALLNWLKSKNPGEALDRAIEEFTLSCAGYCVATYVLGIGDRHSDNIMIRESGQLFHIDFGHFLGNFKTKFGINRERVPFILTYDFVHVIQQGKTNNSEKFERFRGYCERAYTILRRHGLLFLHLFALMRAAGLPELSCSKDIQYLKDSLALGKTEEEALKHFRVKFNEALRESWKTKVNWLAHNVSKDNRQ
PI3Kδ, sequence (P27986 whole entry partner, canonical isoform): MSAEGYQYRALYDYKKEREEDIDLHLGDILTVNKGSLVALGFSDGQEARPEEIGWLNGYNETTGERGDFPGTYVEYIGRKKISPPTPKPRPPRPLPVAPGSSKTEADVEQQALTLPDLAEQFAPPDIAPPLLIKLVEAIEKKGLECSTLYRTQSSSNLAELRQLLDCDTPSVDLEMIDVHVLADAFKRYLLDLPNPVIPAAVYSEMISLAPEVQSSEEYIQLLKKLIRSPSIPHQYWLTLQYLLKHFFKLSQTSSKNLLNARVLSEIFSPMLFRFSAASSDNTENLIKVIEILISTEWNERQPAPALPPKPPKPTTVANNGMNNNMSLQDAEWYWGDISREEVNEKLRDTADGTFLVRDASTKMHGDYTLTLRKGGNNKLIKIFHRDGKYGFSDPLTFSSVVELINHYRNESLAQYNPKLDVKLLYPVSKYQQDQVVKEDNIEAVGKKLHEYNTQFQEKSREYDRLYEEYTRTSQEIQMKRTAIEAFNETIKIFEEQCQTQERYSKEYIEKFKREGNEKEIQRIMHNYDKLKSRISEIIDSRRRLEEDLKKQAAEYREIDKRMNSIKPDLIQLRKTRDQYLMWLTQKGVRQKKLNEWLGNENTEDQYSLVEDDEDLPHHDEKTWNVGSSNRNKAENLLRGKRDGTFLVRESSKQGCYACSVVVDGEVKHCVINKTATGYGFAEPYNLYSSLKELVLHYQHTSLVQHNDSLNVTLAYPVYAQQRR
PI3Kγ, sequence (P48736 whole entry, canonical isoform): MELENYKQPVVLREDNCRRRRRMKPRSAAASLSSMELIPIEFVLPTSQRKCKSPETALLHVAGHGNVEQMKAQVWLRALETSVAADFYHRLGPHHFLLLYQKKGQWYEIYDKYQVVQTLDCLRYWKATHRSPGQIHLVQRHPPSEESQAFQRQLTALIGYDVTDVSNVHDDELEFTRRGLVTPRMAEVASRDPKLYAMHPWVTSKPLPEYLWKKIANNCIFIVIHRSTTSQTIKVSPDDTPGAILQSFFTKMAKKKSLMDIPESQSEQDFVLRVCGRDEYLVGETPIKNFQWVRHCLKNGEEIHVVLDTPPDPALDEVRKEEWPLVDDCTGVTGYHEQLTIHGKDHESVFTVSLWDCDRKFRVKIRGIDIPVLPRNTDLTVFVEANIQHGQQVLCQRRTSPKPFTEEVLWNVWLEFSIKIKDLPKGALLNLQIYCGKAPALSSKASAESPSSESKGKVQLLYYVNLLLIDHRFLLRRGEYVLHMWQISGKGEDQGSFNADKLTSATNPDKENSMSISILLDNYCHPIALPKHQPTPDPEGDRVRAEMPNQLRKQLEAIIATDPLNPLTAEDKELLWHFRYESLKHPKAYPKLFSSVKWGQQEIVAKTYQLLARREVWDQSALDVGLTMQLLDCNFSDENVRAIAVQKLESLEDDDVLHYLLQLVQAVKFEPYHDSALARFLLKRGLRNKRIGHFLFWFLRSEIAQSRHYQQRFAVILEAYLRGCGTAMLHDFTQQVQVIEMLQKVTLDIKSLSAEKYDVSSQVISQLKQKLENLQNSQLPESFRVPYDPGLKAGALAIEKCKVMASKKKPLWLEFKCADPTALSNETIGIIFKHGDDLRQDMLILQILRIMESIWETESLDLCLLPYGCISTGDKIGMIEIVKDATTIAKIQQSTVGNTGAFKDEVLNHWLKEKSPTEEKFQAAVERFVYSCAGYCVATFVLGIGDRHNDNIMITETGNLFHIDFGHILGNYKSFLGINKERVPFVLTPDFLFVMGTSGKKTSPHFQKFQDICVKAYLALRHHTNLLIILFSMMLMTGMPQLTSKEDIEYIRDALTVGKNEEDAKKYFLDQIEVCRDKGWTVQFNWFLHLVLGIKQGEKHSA
PI3Kγ, sequence (Q8WYR1 whole entry partner, canonical isoform): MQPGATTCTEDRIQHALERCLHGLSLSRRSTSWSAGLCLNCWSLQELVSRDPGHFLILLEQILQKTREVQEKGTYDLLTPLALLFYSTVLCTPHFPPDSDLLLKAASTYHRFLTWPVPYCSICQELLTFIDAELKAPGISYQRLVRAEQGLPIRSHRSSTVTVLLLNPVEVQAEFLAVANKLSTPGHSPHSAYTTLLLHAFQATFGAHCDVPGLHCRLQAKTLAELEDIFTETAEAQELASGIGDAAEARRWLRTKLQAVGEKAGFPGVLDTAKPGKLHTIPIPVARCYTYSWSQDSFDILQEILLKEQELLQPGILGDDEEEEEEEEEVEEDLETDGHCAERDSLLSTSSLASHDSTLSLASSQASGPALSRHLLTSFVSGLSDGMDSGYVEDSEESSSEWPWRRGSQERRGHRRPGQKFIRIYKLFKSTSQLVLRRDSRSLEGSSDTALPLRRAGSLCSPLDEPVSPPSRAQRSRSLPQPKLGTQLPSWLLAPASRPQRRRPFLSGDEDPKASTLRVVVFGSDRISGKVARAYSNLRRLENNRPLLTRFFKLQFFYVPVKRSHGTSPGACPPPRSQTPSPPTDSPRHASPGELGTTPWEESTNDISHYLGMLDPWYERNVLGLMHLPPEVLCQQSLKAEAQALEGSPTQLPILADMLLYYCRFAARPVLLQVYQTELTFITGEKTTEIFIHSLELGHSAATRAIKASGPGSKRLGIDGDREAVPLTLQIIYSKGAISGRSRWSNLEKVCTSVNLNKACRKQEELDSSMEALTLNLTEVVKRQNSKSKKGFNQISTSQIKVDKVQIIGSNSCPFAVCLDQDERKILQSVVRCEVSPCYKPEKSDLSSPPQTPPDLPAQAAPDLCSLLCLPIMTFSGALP
PI3Kβ, sequence (P42338 whole entry, canonical isoform): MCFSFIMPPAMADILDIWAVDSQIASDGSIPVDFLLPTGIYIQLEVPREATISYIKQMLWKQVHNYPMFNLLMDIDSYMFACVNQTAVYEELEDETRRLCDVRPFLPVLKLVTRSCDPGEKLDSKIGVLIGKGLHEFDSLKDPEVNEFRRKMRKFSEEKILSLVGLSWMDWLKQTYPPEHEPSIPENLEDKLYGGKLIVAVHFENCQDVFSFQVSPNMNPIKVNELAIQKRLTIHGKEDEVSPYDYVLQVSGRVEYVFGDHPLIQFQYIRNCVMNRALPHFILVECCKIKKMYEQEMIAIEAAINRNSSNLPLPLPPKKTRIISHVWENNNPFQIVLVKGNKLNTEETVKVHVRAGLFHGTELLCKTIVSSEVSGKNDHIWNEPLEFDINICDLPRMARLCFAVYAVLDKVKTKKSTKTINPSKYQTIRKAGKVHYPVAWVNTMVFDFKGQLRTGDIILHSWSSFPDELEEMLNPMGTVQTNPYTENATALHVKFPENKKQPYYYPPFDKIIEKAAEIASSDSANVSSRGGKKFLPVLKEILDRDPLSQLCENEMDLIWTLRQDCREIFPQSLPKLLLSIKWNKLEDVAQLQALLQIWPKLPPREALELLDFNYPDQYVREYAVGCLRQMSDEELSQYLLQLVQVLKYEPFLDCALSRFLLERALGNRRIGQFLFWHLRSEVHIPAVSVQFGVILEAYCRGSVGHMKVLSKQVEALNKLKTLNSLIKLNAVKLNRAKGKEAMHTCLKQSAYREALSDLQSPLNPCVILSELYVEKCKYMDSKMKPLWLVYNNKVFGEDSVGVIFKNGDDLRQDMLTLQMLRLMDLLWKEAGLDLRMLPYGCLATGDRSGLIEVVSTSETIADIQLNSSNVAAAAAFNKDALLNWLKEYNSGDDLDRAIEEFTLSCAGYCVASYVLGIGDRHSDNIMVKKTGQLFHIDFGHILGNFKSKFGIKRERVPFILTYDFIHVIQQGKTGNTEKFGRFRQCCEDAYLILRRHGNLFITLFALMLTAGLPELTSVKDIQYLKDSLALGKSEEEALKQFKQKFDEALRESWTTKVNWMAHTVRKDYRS
PI3Kβ, sequence (P27986 whole entry partner, canonical isoform): as the sequence (P27986 whole entry partner, canonical isoform) above

SMILES | IC50 (PI3Kγ) | IC50 (PI3Kβ) | IC50 (PI3Kδ)
CC[C@H](Nc1nc(N)nc(N)c1Cl)c1nc2cccc(C(F)F)c2c(=O)n1-c1cccc(C(N)=O)c1 [Compound 34, (S)-3-(2-(1-((2,6-diamino-5-chloropyrimidin-4-yl)amino)propyl)-5-(difluoromethyl)-4-oxoquinazolin-3(4H)-yl)benzamide] | 5000 nM | 22 nM | 3 nM
N#Cc1c(N)nc(N)nc1N[C@H](c1nc2cccc(C(F)F)c2c(=O)n1-c1cccc(C(N)=O)c1)C1CC1 [Compound 35, (S)-3-(2-(cyclopropyl((2,6-diamino-5-cyanopyrimidin-4-yl)amino)methyl)-5-(difluoromethyl)-4-oxoquinazolin-3(4H)-yl)benzamide] | 200 nM | 5 nM | 1 nM
C[C@H](Nc1nc(N)nc(N)c1Cl)c1nc2c(C#N)cccc2c(=O)n1-c1cccc(C(N)=O)c1 [Compound 36, (S)-3-(8-cyano-2-(1-((2,6-diamino-5-chloropyrimidin-4-yl)amino)ethyl)-4-oxoquinazolin-3(4H)-yl)benzamide] | > 10000 nM | 299 nM | 10 nM
C[C@H](Nc1ncnc(N)c1C#Cc1cnccn1)c1nc2cccc(Cl)c2c(=O)n1-c1cccc(C(N)=O)c1 [Compound 37, (S)-3-(2-(1-((6-amino-5-(pyrazin-2-ylethynyl)pyrimidin-4-yl)amino)ethyl)-5-chloro-4-oxoquinazolin-3(4H)-yl)benzamide] | > 10000 nM | 243 nM | 7 nM
C[C@H](Nc1ncnc(N)c1C#Cc1ccccn1)c1nc2cccc(Cl)c2c(=O)n1-c1cccc(C(N)=O)c1 [Compound 38, (S)-3-(2-(1-((6-amino-5-(pyridin-2-ylethynyl)pyrimidin-4-yl)amino)ethyl)-5-chloro-4-oxoquinazolin-3(4H)-yl)benzamide] | 1500 nM | 52 nM | 1 nM
CCNC(=O)Nc1cccc(-n2c([C@@H](Nc3ncnc(N)c3[N+](=O)[O-])[C@@H](C)CC)nc3cccc(Cl)c3c2=O)c1 [Compound 43, 1-(3-(2-((1S,2S)-1-((6-amino-5-nitropyrimidin-4-yl)amino)-2-methylbutyl)-5-chloro-4-oxoquinazolin-3(4H)-yl)phenyl)-3-ethylurea] | > 10000 nM | 18 nM | 13 nM
CCNC(=O)Nc1cccc(-n2c([C@H](C)Nc3ncnc(N)c3C#N)nc3cccc(Br)c3c2=O)c1 [Compound 45, (S)-1-(3-(2-(1-((6-amino-5-cyanopyrimidin-4-yl)amino)ethyl)-5-bromo-4-oxoquinazolin-3(4H)-yl)phenyl)-3-ethylurea] | 1800 nM | 6 nM | 2 nM
C=CCc1cccc2nc([C@H](C)Nc3ncnc(N)c3C#N)n(-c3cccc(NC(=O)NCC)c3)c(=O)c12 [Compound 46, (S)-1-(3-(5-allyl-2-(1-((6-amino-5-cyanopyrimidin-4-yl)amino)ethyl)-4-oxoquinazolin-3(4H)-yl)phenyl)-3-ethylurea] | > 10000 nM | 35 nM | 17 nM
CCNC(=O)Nc1cccc(-n2c([C@H](C)Nc3ncnc(N)c3C#N)nc3cccc(F)c3c2=O)c1 [Compound 47, (S)-1-(3-(2-(1-((6-amino-5-cyanopyrimidin-4-yl)amino)ethyl)-5-fluoro-4-oxoquinazolin-3(4H)-yl)phenyl)-3-ethylurea] | > 10000 nM | 36 nM | 26 nM
CCNC(=O)Nc1cccc(-n2c([C@H](C)Nc3ncnc(N)c3C#N)nc3c(Cl)ccc(Cl)c3c2=O)c1 [Compound 48, (S)-1-(3-(2-(1-((6-amino-5-cyanopyrimidin-4-yl)amino)ethyl)-5,8-dichloro-4-oxoquinazolin-3(4H)-yl)phenyl)-3-ethylurea] | > 10000 nM | 7 nM | 3 nM
CCNC(=O)Nc1cccc(-n2c([C@H](C)Nc3ncnc(N)c3C#N)nc3c(F)cccc3c2=O)c1 [Compound 49, (S)-1-(3-(2-(1-((6-amino-5-cyanopyrimidin-4-yl)amino)ethyl)-8-fluoro-4-oxoquinazolin-3(4H)-yl)phenyl)-3-ethylurea] | > 10000 nM | 230 nM | 24 nM
CCNC(=O)Nc1cccc(-n2c([C@H](C)Nc3ncnc(N)c3C#N)nc3c(F)ccc(F)c3c2=O)c1 [Compound 50, (S)-1-(3-(2-(1-((6-amino-5-cyanopyrimidin-4-yl)amino)ethyl)-5,8-difluoro-4-oxoquinazolin-3(4H)-yl)phenyl)-3-ethylurea] | > 10000 nM | 84 nM | 22 nM
CCNC(=O)Nc1cccc(-n2c([C@H](C)Nc3ncnc(N)c3C#N)nc3ccccc3c2=O)c1 [Compound 52, (S)-1-(3-(2-(1-((6-amino-5-cyanopyrimidin-4-yl)amino)ethyl)-4-oxoquinazolin-3(4H)-yl)phenyl)-3-ethylurea] | > 10000 nM | 340 nM | 39 nM
CCNC(=O)Nc1cccc(-n2c([C@H](C)Nc3ncnc(N)c3C#N)nc3ccc(F)cc3c2=O)c1 [Compound 53, (S)-1-(3-(2-(1-((6-amino-5-cyanopyrimidin-4-yl)amino)ethyl)-6-fluoro-4-oxoquinazolin-3(4H)-yl)phenyl)-3-ethylurea] | > 10000 nM | 550 nM | 75 nM
CCNC(=O)Nc1cccc(-n2c([C@H](C)Nc3ncnc(N)c3C#N)nc3cc(F)ccc3c2=O)c1 [Compound 54, (S)-1-(3-(2-(1-((6-amino-5-cyanopyrimidin-4-yl)amino)ethyl)-7-fluoro-4-oxoquinazolin-3(4H)-yl)phenyl)-3-ethylurea] | > 10000 nM | 2600 nM | 250 nM
CCNC(=O)Nc1cccc(-n2c([C@H](C)Nc3ncnc(N)c3C#N)nc3cccc(C)c3c2=O)c1 [Compound 55, (S)-1-(3-(2-(1-((6-amino-5-cyanopyrimidin-4-yl)amino)ethyl)-5-methyl-4-oxoquinazolin-3(4H)-yl)phenyl)-3-ethylurea] | 1800 nM | 12 nM | 3 nM
CCNC(=O)Nc1cccc(-n2c([C@H](C)Nc3ncnc(N)c3C#N)nc3cccc(OC)c3c2=O)c1 [Compound 56, (S)-1-(3-(2-(1-((6-amino-5-cyanopyrimidin-4-yl)amino)ethyl)-5-methoxy-4-oxoquinazolin-3(4H)-yl)phenyl)-3-ethylurea] | > 10000 nM | 6600 nM | 880 nM
CCNC(=O)Nc1cccc(-n2c([C@H](C)N(C)c3ncnc(N)c3C#N)nc3cccc(Cl)c3c2=O)c1 [Compound 57, (S)-1-(3-(2-(1-((6-amino-5-cyanopyrimidin-4-yl)(methyl)amino)ethyl)-5-chloro-4-oxoquinazolin-3(4H)-yl)phenyl)-3-ethylurea] | > 10000 nM | 580 nM | 610 nM
CCNC(=O)Nc1cccc(-n2c([C@H](C)Nc3ncnc(N)c3C#N)nc3c(F)ccc(Cl)c3c2=O)c1 [Compound 62, (S)-1-(3-(2-(1-((6-amino-5-cyanopyrimidin-4-yl)amino)ethyl)-5-chloro-8-fluoro-4-oxoquinazolin-3(4H)-yl)phenyl)-3-ethylurea] | 3800 nM | 7 nM | 4 nM
C[C@H](Nc1ncnc(N)c1C#N)c1nc2c(Cl)ccc(Cl)c2c(=O)n1-c1cccc(NC(=O)NCCCO)c1 [Compound 64, (S)-1-(3-(2-(1-((6-amino-5-cyanopyrimidin-4-yl)amino)ethyl)-5,8-dichloro-4-oxoquinazolin-3(4H)-yl)phenyl)-3-(3-hydroxypropyl)urea] | > 10000 nM | 7 nM | 8 nM
C[C@H](Nc1ncnc(N)c1C#N)c1nc2c(Cl)cccc2c(=O)n1-c1cccc(NC(=O)NCCCO)c1 [Compound 65, (S)-1-(3-(2-(1-((6-amino-5-cyanopyrimidin-4-yl)amino)ethyl)-8-chloro-4-oxoquinazolin-3(4H)-yl)phenyl)-3-(3-hydroxypropyl)urea] | > 10000 nM | 220 nM | 82 nM
C[C@H](Nc1ncnc(N)c1C#N)c1nc2c(F)ccc(Cl)c2c(=O)n1-c1cccc(NC(=O)NCCCO)c1 [Compound 66, (S)-1-(3-(2-(1-((6-amino-5-cyanopyrimidin-4-yl)amino)ethyl)-5-chloro-8-fluoro-4-oxoquinazolin-3(4H)-yl)phenyl)-3-(3-hydroxypropyl)urea] | 3700 nM | 4 nM | 9 nM
C[C@H](Nc1ncnc(N)c1C#N)c1nc2c(F)ccc(F)c2c(=O)n1-c1cccc(NC(=O)NCCCO)c1 [Compound 67, (S)-1-(3-(2-(1-((6-amino-5-cyanopyrimidin-4-yl)amino)ethyl)-5,8-difluoro-4-oxoquinazolin-3(4H)-yl)phenyl)-3-(3-hydroxypropyl)urea] | > 10000 nM | 38 nM | 98 nM
C[C@H](Nc1ncnc(N)c1C#N)c1nc2c(F)cccc2c(=O)n1-c1cccc(NC(=O)NCCCO)c1 [Compound 68, (S)-1-(3-(2-(1-((6-amino-5-cyanopyrimidin-4-yl)amino)ethyl)-8-fluoro-4-oxoquinazolin-3(4H)-yl)phenyl)-3-(3-hydroxypropyl)urea] | > 10000 nM | 220 nM | 130 nM
CCNC(=O)Nc1cccc(-n2c([C@H](C)Nc3ncnc(N)c3C#N)nc3cccc(C#N)c3c2=O)c1 [Compound 69, (S)-1-(3-(2-(1-((6-amino-5-cyanopyrimidin-4-yl)amino)ethyl)-5-cyano-4-oxoquinazolin-3(4H)-yl)phenyl)-3-ethylurea 2,2,2-trifluoroacetic acid salt] | 5200 nM | 110 nM | 8 nM
